Assays:
Type in all cases: biochemical
c-Src kinase = c-Src kinase (Homo sapiens, UniProt P12931); assay: c-Src kinase inhibition; conditions: Table 4; read-out: s-Scr, activity (IC50 for kinase inhibition)
From the text: An appropriate assay is described in Andrejauskas-Buchdunger et al., Cancer Res. 52, 5353-8 (1992).

[1] = molecular target: T1, human insulin receptor (Ins-R) (Homo sapiens, UniProt P06213); assay: Ins-R tyrosine kinase assay, GST-Ins-R; conditions: Table 4; read-out: Ins-R, activity (IC50 for kinase inhibition)
T1 construct: encoding the amino acid region 919-1343 of the intra-cytoplasmic kinase domain of the human insulin receptor; made in house; host or cells: baculovirus (Bac-to-Bac)
From the text: The inhibition of IGF-1R and Ins-R can be determined as follows: The baculovirus donor vector pfbgx3IGFIRcd is used to generate a recombinant baculovirus that expresses the amino acid region 950-1337 of the mature peptide cytoplasmic domain of the human IGF-IR. To generate the cDNA fragment encoding the amino acid region 919-1343 of the intra-cytoplasmic kinase domain of the human insulin receptor, pC5hInsR is used. The fragments of the human IGF-IR and Ins-R are cloned, expressed and small-scale purified as a factor Xa-cleavable glutathione-S-transferase (GST)-fusion protein using the Bac-to-Bac™ system (GIBCO BRL) of recombinant baculovirus generation. Virus containing media is collected from the transfected cell culture and used for infection to increase its titer. Virus containing media obtained after two rounds of infection is used for large-scale protein expression. Cell extracts are prepared and loaded onto a glutathione-Sepharose (Pharmacia) column. After washing, the GST-tagged proteins are then eluted with a glutathione-containing buffer. Purified protein is stored at −70° C. in elution buffer. Tyrosine protein kinase assays with purified GST-IGF-1R and GST-ins-R are carried in a final volume of 30 μl containing 20 mM Tris-HCl, pH 7.6, 10 mM MgCl2, 0.01 mM Na3VO4, 1% DMSO, 1 mM DTT, 3 μg/ml poly(Glu,Tyr) 4:1 and 10 μM ATP (γ-[^33P]-ATP 0.1 μCi). The assay is performed in 96-well plates at ambient temperature for 20 min and terminated by addition of 25 μl 0.05 M EDTA pH 7.0. An aliquot of 40 μl is spotted with a multichannel dispenser on Whatman P81 membranes mounted in a Millipore Microtiter filter manifold connected to a low vacuum source. After elimination of liquid, the membrane is transferred to a sequence of 4 washing baths containing 0.5% H3PO4 and one with EtOH (shaking incubation for 10 min each), dried, mounted onto a Hewlett Packard TopCount manifold added 10 μl Microscint® and counted. Compounds of formula (I) show up to 90% inhibition of Ins-R at 10,000 nM, preferably between 60-90% inhibition. The inhibition of Tek can be determined as follows: The procedure of the expression, purification and assay these kinases has been described. Fabbro et al., Pharmacol. Ther. 82(2-3) 293-301 (1999). In brief, the glutathione S-transferase (GST) gene from the pAcG1 vector (Pharmingen) is excised with EcoRV and EcoRI and inserted into the cloning site of the Fast-Bac baculoviral vector (GIBCO) creating a 5530 bp vector with N-terminal cloning sites derived from the pAcG1 fusion vector (FBG0). The C-terminal cloning site may be any cloning site (from the Fast-Bac vector) downstream of the N-terminal cloning site used. N-terminally GST-fused (pAcG1, Pharmingen) KDR, Flt-1, Flk-1, Tek and PDGFR-β kinase domains are obtained from ProQinase, Freiburg, Germany. Tek is recloned into the FBG1 vector by EcoRI excision and ligation into EcoRI digested FBG1 (FBG1-Tek). The coding sequences for the whole cytoplasmic domain of c-Kit (aa 544-976) and c-Fms (aa 538-972) are amplified by PCR from human uterus and from human bone marrow cDNA libraries (Clontech), respectively. The amplified DNA fragments are fused to GST by cloning them into FBG1 as BamHI-EcoRI insertions, to yield FBG1-c-Kit and FBG1-c-Fms. Tek is recloned into the FBG0 transfer vector by EcoRI excision and ligation into EcoRI digested FBG0 (FBG-Tie2/Tek). FGFR-1 and c-met kinase domains are obtained by PCR from human A431 cells. N-terminal primers contain an overhanging EcoRI site, while C-terminal primers contain a XhoI site to aid cloning into the transfer vectors. After digestion of both the PCR fragments and FBG0 the cleavage products are gel-purified and ligated together to form the kinase constructs (FBG-Met, FBG-FGFR-1).

c-Abl kinase = molecular target: T2, c-Abl kinase (Homo sapiens, UniProt P00519); assay: c-Abl protein-tyrosine kinase filter binding assay; conditions: Table 4; read-out: c-abl, activity (IC50 for kinase inhibition)
T2 construct: The His-tagged kinase domain of c-Abl is cloned and expressed in the baculovirus/Sf9 system; His; made in house; host or cells: Sf9 (baculovirus)
T2 sequence (P00519 242-493 limits assumed): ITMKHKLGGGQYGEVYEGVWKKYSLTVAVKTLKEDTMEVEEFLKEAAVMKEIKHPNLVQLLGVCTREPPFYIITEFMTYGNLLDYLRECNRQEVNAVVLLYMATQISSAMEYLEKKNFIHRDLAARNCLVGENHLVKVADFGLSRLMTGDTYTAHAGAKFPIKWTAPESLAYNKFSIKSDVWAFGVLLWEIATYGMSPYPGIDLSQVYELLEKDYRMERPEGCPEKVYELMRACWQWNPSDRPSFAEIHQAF
Procedure: The His-tagged kinase domain of c-Abl is cloned and expressed in the baculovirus/Sf9 system as described by Bhat et al. in J. Biol. Chem. 1997; 272:16170-16175. A protein of 37 kD (c-Abl kinase) is purified by a two-step procedure over a Cobalt metal chelate column followed by an anion exchange column with a yield of 1-2 mg/L of Sf9 cells (Bhat et al., reference cited). The purity of the c-Abl kinase is >90% as judged by SDS-PAGE after Coomassie blue staining. The assay contains (total volume of 30 μL): c-Abl kinase (50 ng), 20 mM Tris.HCl, pH 7.5, 10 mM MgCl2, 10 μM Na3VO4, 1 mM DTT and 0.06 μCi/assay [γ^33 P]-ATP (5 μM ATP) using 30 μg/mL poly-Ala,Glu,Lys,Tyr-6:2:5:1 (Poly-AEKY, Sigma P1152) in the presence of 1% DMSO. Reactions are terminated by adding 10 μL of 250 mM EDTA and 30 μL of the reaction mixture is transferred onto Immobilon-PVDF membrane (Millipore, Bedford, Mass., USA) previously soaked for 5 min with methanol, rinsed with water, then soaked for 5 min with 0.5% H3PO4 and mounted on vacuum manifold with disconnected vacuum source. After spotting all samples, vacuum is connected and each well rinsed with 200 μL 0.5% H3PO4. Membranes are removed and washed on a shaker with 0.5% H3PO4 (4 times) and once with ethanol. Membranes are counted after drying at ambient temperature, mounting in Packard TopCount 96-well frame, and addition of 10 μL/well of Microscint™ (Packard).

human Flt-3 = molecular target: T3, human Flt-3 (Homo sapiens, UniProt P36888); assay: Flt3 kinase inhibition, GST-Flt-3, 33P incorporation into poly(Glu,Tyr); conditions: Table 4; read-out: Flt-3, activity (IC50 for kinase inhibition)
T3 construct: expressing the amino acid region amino acids 563-993 of the cytoplasmic kinase domain of human Flt-3; made in house; host or cells: Sf9 (baculovirus)
T3 sequence (P36888 563-993): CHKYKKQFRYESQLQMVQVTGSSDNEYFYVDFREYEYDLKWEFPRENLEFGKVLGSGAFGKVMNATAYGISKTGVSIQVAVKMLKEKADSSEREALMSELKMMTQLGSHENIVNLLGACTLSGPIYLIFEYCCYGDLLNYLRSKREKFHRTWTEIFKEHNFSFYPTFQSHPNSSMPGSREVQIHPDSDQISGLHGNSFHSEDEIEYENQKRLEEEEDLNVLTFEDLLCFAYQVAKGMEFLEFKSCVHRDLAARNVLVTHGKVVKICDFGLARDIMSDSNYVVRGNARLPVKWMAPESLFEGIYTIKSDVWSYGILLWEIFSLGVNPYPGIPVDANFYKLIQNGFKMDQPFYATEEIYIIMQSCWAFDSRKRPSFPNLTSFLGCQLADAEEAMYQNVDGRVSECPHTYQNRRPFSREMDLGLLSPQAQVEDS
Procedure: The compounds to be tested are then diluted in culture medium (without FCS, with 0.1% bovine serum albumin) and added to the cells. (Controls comprise medium without test compounds). After two hours' incubation at 37° C., recombinant VEGF is added; the final VEGF concentration is 20 ng/ml). After a further five minutes incubation at 37° C., the cells are washed twice with ice-cold PBS (phosphate-buffered saline) and immediately lysed in 100 μl lysis buffer per well. The lysates are then centrifuged to remove the cell nuclei, and the protein concentrations of the supernatants are determined using a commercial protein assay (BIORAD). The lysates can then either be immediately used or, if necessary, stored at −20° C. A sandwich ELISA is carried out to measure the VEGF-R2 phosphorylation: a monoclonal antibody to VEGF-R2 (for example Mab 1495.12.14; ProQinase, Freiburg, Germany) is immobilized on black ELISA plates (OptiPlate™ HTRF-96 from Packard). The plates are then washed and the remaining free protein-binding sites are saturated with 3% TopBlock® (Juro, Cat. # TB232010) in phosphate buffered saline with Tween 20® (polyoxyethylen(20)-sorbitane monolaurate, ICI/Uniquema) (PBST). The cell lysates (20 μg protein per well) are then incubated in these plates overnight at 4° C. together with an antiphosphotyrosine antibody coupled with alkaline phosphatase (PY20:AP from Zymed). […] The luminescence is measured in a Packard Top Count Microplate Scintillation Counter. The difference between the signal of the positive control (stimulated with VEGF) and that of the negative control (not stimulated with VEGF) corresponds to VEGF-induced VEGF-R2 phosphorylation (=100%). The activity of the tested substances is calculated as percent inhibition of VEGF-induced VEGF-R2 phosphorylation, wherein the concentration of substance that induces half the maximum inhibition is defined as the IC50 (inhibitory dose for 50% inhibition). […] Flt3 kinase inhibition is determined as follows: The baculovirus donor vector pFbacG01 (GIBCO) is used to generate a recombinant baculovirus expressing the amino acid region amino acids 563-993 of the cytoplasmic kinase domain of human Flt-3. The coding sequence for the cytoplasmic domain of Flt-3 is amplified by PCR from human c-DNA libraries (Clontech). The amplified DNA fragments and the pFbacG01 vector are made compatible for ligation by digestion with BamH1 and HindIII. Ligation of these DNA fragments results in the baculovirus donor plasmid Flt-3(1.1). The production of the viruses, the expression of proteins in Sf9 cells and the purification of the GST-fused proteins are performed as follows: Production of virus: Transfer vector (pFbacG01-Flt-3) containing the Flt-3 kinase domain is transfected into the DH10Bac cell line (GIBCO) and the transfected cells are plated on selective agar plates. Colonies without insertion of the fusion sequence into the viral genome (carried by the bacteria) are blue. Single white colonies are picked and viral DNA (bacmid) is isolated from the bacteria by standard plasmid purification procedures. Sf9 or Sf21 cells (American Type Culture Collection) are then transfected in flasks with the viral DNA using Cellfectin reagent. Determination of small scale protein expression in Sf9 cells: Virus containing media is collected from the transfected cell culture and used for infection to increase its titre. Virus containing media obtained after two rounds of infection is used for large-scale protein expression. For large-scale protein expression 100 cm^2 round tissue culture plates are seeded with 5×10^7 cells/plate and infected with 1 mL of virus-containing media (approx. 5 MOIs). After 3 days the cells are scraped off the plate and centrifuged at 500 rpm for 5 min. Cell pellets from 10-20, 100 cm^2 plates, are resuspended in 50 mL of ice-cold lysis buffer (25 mMTris-HCl, pH 7.5, 2 mM EDTA, 1% NP-40, 1 mM DTT, 1 mM PMSF). The cells are stirred on ice for 15 min and then centrifuged at 5000 rpms for 20 min. […]

c-Src kinase, sequence (P12931 whole entry): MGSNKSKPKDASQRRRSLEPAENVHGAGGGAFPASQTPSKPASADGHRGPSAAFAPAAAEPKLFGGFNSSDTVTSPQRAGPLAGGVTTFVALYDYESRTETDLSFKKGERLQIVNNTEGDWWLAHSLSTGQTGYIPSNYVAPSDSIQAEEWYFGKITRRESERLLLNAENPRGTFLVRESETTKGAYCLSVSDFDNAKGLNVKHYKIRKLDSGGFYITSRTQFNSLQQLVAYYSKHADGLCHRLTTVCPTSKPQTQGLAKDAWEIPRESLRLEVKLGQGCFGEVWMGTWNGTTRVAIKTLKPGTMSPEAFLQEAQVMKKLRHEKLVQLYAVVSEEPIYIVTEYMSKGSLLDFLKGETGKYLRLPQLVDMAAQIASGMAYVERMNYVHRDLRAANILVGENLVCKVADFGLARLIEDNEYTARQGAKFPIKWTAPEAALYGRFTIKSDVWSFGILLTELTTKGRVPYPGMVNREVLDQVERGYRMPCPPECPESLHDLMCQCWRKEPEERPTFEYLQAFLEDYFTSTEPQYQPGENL
T1 sequence (P06213 958-1382 limits assumed): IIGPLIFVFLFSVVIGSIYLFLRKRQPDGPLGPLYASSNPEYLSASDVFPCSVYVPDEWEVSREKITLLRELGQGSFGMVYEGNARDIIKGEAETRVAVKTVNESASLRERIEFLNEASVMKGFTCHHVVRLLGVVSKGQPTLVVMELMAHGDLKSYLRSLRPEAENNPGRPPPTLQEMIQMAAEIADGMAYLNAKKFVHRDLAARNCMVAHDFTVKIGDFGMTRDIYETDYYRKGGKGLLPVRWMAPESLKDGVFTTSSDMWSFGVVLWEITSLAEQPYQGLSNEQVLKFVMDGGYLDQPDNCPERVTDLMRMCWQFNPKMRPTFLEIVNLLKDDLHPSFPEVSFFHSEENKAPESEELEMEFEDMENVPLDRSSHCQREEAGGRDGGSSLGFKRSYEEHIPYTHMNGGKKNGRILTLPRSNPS

Row | SMILES | IC50 (c-Src kinase) [µM] | further results
1 | CN1CCN(c2ccc(-c3cnn4c(N)c(-c5ccccc5)cnc34)cc2)CC1 [Example 7, 3-[4-(4-Methyl-piperazin-1-yl)-phenyl]-6-phenyl-pyrazolo[1,5-a]pyrimidin-7-ylamine] | < 10 | –
2 | Nc1c(-c2c(Cl)cccc2Cl)cnc2c(-c3ccccc3)cnn12 [Example 16, 6-(2,6-Dichloro-phenyl)-3-phenyl-pyrazolo[1,5-a]pyrimidin-7-ylamine] | – | IC50 [1]: < 10 µM
3 | CN1CCN(c2ccc(-c3cnn4c(N)c(-c5csc6ccccc56)cnc34)cc2)CC1 [Example 19, 6-Benzo[b]thiophen-3-yl-3-[4-(4-methyl-piperazin-1-yl)-phenyl]-pyrazolo[1,5-a]pyrimidin-7-ylamine] | < 10 | IC50 (c-Abl kinase): < 10 µM
4 | COc1ccccc1-c1cnc2c(-c3ccc(N4CCN(C)CC4)cc3)cnn2c1N [Example 27, 6-(2-Methoxy-phenyl)-3-[4-(4-methyl-piperazin-1-yl)-phenyl]-pyrazolo[1,5-a]pyrimidin-7-ylamine] | < 10 | –
5 | CN1CCN(c2cccc(-c3cnn4c(N)c(-c5ccsc5)cnc34)c2)CC1 [Example 49, 3-[3-(4-Methyl-piperazin-1-yl)-phenyl]-6-thiophen-3-yl-pyrazolo[1,5-a]pyrimidin-7-ylamine] | – | IC50 (human Flt-3): < 10 µM
